In ChEMBL document CHEMBL3044970, “Isoniazid: the magic molecule” (2012):
≈ marks a conversion by molar mass, not a printed value.

Experiments:
Assay type in all cases: functional
[1] = tested on: Mycobacterium tuberculosis; experiment: Antimicrobial activity against Mycobacterium tuberculosis H37Rv infected macrophage model
[2] = tested on: Mycobacterium tuberculosis; experiment: Antimicrobial activity against Mycobacterium tuberculosis H37Rv
[3] = tested on: Mycobacterium tuberculosis; experiment: Ratio of INH MIC to compound MIC for Mycobacterium tuberculosis H37Rv
[4] = tested on: Mycobacterium tuberculosis; experiment: Antimicrobial activity against Mycobacterium tuberculosis
[5] = tested on: Mycobacterium tuberculosis; experiment: Antimicrobial activity against Mycobacterium tuberculosis H4
[6] = tested on: Mycobacterium tuberculosis; experiment: Antimicrobial activity against Mycobacterium tuberculosis H37Rv by agar dilution method relative to isonicotinoyl hydrazide

Structure (SMILES)	MIC [2]	MIC [4]	MIC [5]	also measured
O=C1NC(NNC(=O)c2ccncc2)=N/C1=C\c1cccc(Cl)c1	–	–	–	MIC [1]: 0.8 µg/mL (≈ 2.34 µM)
COc1ccc(C2SCC(=O)N2NC(=O)c2ccncc2)cc1O (centres undefined)	0.31 µg/mL	–	–	–
COc1ccc(C2C(Cl)C(=O)N2NC(=O)c2ccncc2)cc1O (centres undefined)	0.31 µg/mL	–	–	–
COc1cc(C2=NN(C(=O)c3ccncc3)C(c3ccc(O)cc3)C2)ccc1OCC(=O)O (centres undefined)	0.12 µM	–	–	Ratio [3]: 5.6
O=C(c1ccncc1)N1N=C(c2ccccn2)CC1c1cccc(Cl)c1 (centres undefined)	–	8 µg/mL (≈ 22 µM)	8 µg/mL (≈ 22 µM)	–
O=C(c1ccncc1)N1N=C(c2ccccn2)CC1c1ccc(Cl)cc1 (centres undefined)	–	8 µg/mL (≈ 22 µM)	8 µg/mL (≈ 22 µM)	–
Cc1ccccc1C1CC(c2ccccn2)=NN1C(=O)c1ccncc1 (centres undefined)	–	8 µg/mL (≈ 23.4 µM)	8 µg/mL (≈ 23.4 µM)	–
O=C(c1ccncc1)N1N=C(c2ccccn2)CC1c1ccccc1 (centres undefined)	–	8 µg/mL (≈ 24.4 µM)	8 µg/mL (≈ 24.4 µM)	–
O=C(c1ccncc1)N1N=C(c2ccccn2)CC1c1ccccc1Cl (centres undefined)	–	8 µg/mL (≈ 22 µM)	8 µg/mL (≈ 22 µM)	–
O=C(NNC(=S)Nc1ccccc1C(F)(F)F)c1ccncc1	0.58 µM	–	–	Ratio [6]: 1.24
NNC(=O)c1ccncc1 [ISONIAZID]	–	0.05 µg/mL (≈ 0.365 µM)	–	–
CO[C@H]1/C=C/O[C@@]2(C)Oc3c(C)c(O)c4c(O)c(c(/C=N/N5CCN(C)CC5)c(O)c4c3C2=O)NC(=O)/C(C)=C\C=C\[C@H](C)[C@H](O)[C@@H](C)[C@@H](O)[C@@H](C)[C@H](OC(C)=O)[C@@H]1C [RIFAMPIN]	0.2 µg/mL	–	–	–
